These results are taken from article PMC4579270, “Identification and Characterization of an Irreversible Inhibitor of CDK2” (Chemistry & Biology, 2015).

What is called remaining activity is the signal under treatment as a percentage of the control signal.

Assay in all cases: Dundee protein kinase screen
Assay type in all cases: biochemical

In assay [1] the target is TESK1 (Homo sapiens, UniProt Q15569). As to conditions: TESK1, 1µM; read-out: %Remaining activity at 1µM NU6300. The procedure: (§1) Prior to determining its cellular activity, we carried out a screen to assess its selectivity against a panel of 131 protein kinases under conditions that would not distinguish between a reversible or irreversible mode of action. […] These 13 kinases and 29 additional kinases, selected for their known sensitivity to other inhibitors within the purine series, were then tested in a modified screening format in which the assay was repeated following a 4-hr pre-incubation (Table S3B). […] However, conformational flexibility around the active site may promote such an interaction with a residue from another part of the structure ([Martin et al., 2012]).
Sequence of TESK1 (Q15569 whole entry): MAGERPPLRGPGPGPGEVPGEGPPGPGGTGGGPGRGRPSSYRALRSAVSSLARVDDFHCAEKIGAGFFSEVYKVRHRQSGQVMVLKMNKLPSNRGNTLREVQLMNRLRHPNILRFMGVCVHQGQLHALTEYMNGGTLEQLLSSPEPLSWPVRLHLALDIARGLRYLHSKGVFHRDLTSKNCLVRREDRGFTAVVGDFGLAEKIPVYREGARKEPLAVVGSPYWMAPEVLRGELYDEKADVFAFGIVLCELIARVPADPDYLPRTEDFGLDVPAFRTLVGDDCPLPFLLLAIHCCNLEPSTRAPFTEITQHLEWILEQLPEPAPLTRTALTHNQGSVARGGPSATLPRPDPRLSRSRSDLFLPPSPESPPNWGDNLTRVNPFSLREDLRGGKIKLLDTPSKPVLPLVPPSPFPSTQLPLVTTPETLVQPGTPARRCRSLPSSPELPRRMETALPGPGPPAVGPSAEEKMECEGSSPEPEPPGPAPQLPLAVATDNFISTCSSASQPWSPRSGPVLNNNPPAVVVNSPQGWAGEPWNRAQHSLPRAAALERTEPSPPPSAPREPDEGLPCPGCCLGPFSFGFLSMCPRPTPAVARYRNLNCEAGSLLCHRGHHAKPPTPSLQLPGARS
(§2) Table S3, Related to Figure 4. NCL-0006300 protein kinase selectivity. (A) NU6300 was tested at a single concentration of 1µM against 131 protein kinases present in a Dundee protein kinase screen (Bain et al., 2007). Values given are % activity remaining and are the average of duplicate measurements: 0-25% (red), 26-50% (yellow), 51-80% […]
(§3) (black) and above 81% (green). […]

Assay [2] concerns the target ROCK 2 (Homo sapiens, UniProt O75116). The note with it: ROCK 2, 1µM; read-out: %Remaining activity at 1µM NU6300. As to the method:
as §1, §2, §3

The target in assay [3] is PKD1 (Homo sapiens, UniProt Q15139). As to conditions: PKD1, 1µM; read-out: %Remaining activity at 1µM NU6300. As to the method: as §1, §2, §3
Sequence of PKD1 (Q15139 whole entry): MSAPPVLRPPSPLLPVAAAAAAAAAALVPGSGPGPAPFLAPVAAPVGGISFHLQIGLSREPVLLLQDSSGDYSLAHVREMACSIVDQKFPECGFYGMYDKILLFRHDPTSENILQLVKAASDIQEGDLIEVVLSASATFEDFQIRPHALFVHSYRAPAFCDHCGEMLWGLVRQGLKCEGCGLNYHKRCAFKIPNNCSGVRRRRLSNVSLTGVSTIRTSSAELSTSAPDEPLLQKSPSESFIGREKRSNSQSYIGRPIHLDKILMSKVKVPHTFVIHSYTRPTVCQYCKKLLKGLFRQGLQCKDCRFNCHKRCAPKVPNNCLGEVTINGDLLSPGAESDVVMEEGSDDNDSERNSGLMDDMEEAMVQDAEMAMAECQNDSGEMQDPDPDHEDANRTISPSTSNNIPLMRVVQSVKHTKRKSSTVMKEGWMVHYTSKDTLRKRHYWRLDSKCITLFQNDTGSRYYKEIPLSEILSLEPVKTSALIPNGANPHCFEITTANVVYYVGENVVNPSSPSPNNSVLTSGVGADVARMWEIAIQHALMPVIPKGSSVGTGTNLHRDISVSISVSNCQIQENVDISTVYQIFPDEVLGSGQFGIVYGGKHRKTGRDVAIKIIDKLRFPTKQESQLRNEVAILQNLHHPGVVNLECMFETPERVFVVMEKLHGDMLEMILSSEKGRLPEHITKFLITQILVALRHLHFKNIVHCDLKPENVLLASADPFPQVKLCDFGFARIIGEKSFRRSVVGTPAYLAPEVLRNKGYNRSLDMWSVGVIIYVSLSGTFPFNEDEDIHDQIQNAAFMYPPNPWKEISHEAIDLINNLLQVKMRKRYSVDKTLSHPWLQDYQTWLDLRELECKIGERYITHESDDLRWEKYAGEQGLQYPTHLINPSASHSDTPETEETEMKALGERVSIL
For assay [4], the target named is SIK2 (Homo sapiens, UniProt Q9H0K1). As to conditions: SIK2, 1µM; read-out: %Remaining activity at 1µM NU6300. The procedure:
as §1, §2, §3

The target of assay [5] is NEK2a (Homo sapiens, UniProt P51955). The note with it: read-out: %Remaining activity at 1µM NU6300. As to the method: as §1, §2, §3
Sequence of NEK2a (P51955 whole entry): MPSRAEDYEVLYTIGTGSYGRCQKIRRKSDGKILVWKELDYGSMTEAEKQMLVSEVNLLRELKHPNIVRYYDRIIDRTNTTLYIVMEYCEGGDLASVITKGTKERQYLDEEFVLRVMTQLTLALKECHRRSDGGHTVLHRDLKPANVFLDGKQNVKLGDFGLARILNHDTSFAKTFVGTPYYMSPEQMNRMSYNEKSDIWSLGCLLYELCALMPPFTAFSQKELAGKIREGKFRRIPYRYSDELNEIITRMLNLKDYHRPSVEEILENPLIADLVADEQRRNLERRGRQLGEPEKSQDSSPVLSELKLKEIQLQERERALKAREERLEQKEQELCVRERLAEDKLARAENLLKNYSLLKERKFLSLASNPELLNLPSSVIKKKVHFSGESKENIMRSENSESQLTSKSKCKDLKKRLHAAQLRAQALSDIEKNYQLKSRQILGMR
The test system of assay [6] is PHK. The procedure:
as §1, §2, §3

Assay [7] has as its target PKBα (Homo sapiens, UniProt P31749). As to conditions: read-out: %Remaining activity at 1µM NU6300. As to the method: as §1, §2, §3
Assay [8] addresses SYK (Homo sapiens, UniProt P43405). The note with it: read-out: %Remaining activity at 1µM NU6300. The procedure:
as §1, §2, §3

Assay [9] addresses SRPK1 (Homo sapiens, UniProt Q96SB4). As to conditions: SRPK1, 1µM; read-out: %Remaining activity at 1µM NU6300. The procedure: as §1, §2, §3
The target in assay [10] is PIM1 (Homo sapiens, UniProt P11309). As to conditions: PIM1, 1µM; read-out: %Remaining activity at 1µM NU6300. As to the method:
as §1, §2, §3

Assay [11] concerns the target PLK1 (Homo sapiens, UniProt P53350). As to conditions: PLK1, 1µM; read-out: %Remaining activity at 1µM NU6300. As to the method: as §1, §2, §3
Assay [12] concerns the target MNK2 (Homo sapiens, UniProt Q9HBH9). As to conditions: MNK2, 1µM; read-out: %Remaining activity at 1µM NU6300. The procedure: as §1, §2, §3
Assay [13] has as its target MST4 (Homo sapiens, UniProt Q9P289). As to conditions: MST4, 1µM; read-out: %Remaining activity at 1µM NU6300. As to the method:
as §1, §2, §3

For assay [14], the target named is T1, PDK1 (Homo sapiens, UniProt O15530).
T1 sequence (O15530 1-556): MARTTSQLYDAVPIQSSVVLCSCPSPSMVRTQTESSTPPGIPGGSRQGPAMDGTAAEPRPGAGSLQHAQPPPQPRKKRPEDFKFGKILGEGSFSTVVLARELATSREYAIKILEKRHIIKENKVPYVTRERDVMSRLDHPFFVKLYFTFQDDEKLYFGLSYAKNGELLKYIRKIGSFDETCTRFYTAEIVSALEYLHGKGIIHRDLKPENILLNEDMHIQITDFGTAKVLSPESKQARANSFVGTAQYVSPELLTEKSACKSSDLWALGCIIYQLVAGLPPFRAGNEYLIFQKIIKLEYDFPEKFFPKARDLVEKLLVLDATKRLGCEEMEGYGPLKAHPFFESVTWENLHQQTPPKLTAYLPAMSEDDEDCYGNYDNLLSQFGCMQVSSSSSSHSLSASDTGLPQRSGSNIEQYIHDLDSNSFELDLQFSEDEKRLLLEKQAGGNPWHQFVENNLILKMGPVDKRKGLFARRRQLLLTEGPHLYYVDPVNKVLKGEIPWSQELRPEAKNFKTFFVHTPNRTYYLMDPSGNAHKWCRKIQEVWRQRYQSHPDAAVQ
As to conditions: PDK1, 1µM; read-out: %Remaining activity at 1µM NU6300. As to the method:
as §1, §2, §3

For assay [15], the target named is PAK6 (Homo sapiens, UniProt Q9NQU5). As to conditions: PAK6, 1µM; read-out: %Remaining activity at 1µM NU6300. As to the method:
as §1, §2, §3

Assay [16] has as its target MSK1 (Homo sapiens, UniProt O75582). As to conditions: MSK1, 1µM; read-out: %Remaining activity at 1µM NU6300. The procedure: as §1, §2, §3

Sequence of PLK1 (P53350 whole entry): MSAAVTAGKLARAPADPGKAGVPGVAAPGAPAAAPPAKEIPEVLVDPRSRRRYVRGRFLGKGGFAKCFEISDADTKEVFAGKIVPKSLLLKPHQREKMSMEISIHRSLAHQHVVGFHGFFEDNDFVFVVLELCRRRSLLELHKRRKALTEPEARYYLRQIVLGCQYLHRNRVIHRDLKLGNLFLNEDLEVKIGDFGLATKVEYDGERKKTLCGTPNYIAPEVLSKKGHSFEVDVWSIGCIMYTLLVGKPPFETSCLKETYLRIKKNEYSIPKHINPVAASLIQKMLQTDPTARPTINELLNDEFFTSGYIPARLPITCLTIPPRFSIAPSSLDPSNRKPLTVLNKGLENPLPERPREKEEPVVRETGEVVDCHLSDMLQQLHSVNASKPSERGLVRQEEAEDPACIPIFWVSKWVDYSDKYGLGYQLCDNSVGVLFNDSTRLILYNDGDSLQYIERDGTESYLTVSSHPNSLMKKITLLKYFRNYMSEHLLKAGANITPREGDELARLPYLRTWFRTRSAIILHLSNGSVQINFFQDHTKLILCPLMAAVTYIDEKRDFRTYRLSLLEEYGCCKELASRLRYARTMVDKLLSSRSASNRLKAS
Sequence of SRPK1 (Q96SB4 whole entry): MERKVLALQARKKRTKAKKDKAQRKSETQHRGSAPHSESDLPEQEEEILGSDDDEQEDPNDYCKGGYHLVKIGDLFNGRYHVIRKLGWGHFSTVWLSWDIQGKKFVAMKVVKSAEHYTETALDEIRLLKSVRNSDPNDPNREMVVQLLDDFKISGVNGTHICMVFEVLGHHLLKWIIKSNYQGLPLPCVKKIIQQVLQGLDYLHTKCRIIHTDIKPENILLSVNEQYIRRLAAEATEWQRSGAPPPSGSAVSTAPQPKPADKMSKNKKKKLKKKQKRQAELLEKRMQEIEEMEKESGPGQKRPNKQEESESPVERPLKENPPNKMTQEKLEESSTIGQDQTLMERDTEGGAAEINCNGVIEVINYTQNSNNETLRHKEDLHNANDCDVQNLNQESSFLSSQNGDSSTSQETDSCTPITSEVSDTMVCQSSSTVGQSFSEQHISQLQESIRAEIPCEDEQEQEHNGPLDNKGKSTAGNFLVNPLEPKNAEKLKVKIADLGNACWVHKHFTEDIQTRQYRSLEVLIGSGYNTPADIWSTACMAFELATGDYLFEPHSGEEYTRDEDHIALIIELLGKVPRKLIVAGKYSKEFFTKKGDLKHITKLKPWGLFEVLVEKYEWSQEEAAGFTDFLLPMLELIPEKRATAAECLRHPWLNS
Sequence of MNK2 (Q9HBH9 whole entry): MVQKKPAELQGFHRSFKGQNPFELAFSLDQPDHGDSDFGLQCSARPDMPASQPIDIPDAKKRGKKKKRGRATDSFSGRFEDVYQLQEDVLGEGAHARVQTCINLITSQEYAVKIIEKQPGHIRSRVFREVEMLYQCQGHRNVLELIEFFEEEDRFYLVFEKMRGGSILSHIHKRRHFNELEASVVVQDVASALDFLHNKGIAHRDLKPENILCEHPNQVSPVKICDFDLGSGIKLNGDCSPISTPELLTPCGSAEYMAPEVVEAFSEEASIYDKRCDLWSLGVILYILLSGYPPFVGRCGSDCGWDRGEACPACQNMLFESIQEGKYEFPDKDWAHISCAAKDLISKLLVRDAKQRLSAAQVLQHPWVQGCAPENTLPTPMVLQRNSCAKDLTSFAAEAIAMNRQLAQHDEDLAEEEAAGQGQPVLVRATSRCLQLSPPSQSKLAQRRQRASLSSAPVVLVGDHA
Sequence of PIM1 (P11309 whole entry): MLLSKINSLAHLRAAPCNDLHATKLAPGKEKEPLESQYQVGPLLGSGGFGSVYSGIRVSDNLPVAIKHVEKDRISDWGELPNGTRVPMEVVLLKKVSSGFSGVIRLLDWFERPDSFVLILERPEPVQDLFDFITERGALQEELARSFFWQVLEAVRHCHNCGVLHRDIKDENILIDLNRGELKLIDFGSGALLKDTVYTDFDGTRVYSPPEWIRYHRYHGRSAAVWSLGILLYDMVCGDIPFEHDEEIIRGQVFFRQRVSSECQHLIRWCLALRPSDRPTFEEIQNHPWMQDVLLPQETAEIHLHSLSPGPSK
Sequence of PAK6 (Q9NQU5 whole entry): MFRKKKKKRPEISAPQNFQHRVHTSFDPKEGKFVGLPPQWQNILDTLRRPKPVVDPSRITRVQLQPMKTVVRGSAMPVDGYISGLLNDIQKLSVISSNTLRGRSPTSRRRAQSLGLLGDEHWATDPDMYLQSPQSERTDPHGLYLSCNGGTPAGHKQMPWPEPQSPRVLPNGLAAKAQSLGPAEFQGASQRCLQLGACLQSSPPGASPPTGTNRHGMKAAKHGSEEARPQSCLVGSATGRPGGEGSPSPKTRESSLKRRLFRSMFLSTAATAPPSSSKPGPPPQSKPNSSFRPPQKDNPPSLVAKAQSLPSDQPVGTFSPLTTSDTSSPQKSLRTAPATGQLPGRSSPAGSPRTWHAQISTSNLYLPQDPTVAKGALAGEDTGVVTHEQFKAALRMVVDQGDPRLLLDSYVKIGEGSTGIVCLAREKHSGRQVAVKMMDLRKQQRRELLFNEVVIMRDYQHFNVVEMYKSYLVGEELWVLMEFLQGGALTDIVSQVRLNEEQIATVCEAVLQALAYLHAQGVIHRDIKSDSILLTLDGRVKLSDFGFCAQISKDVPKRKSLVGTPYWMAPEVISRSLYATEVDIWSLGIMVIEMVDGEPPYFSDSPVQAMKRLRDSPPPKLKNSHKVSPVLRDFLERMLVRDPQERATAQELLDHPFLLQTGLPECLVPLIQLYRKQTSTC

As to `C=CS(=O)(=O)c1ccc(Nc2nc(OCC3CCCCC3)c3nc[nH]c3n2)cc1` [NU6300, 6-(cyclohexylmethoxy)-N-(4-(vinylsulfonyl)phenyl)-9H-purin-2-amine], the remaining activity at 1 µM in assay [1] worked out at 78%; in assay [2] it was 25%; in assay [3], 55%; in assay [4], 22%; in [5], 55%; in [7], 101%. In addition, the remaining activity at 1 µM was found to be 58% in [8]; 71% in assay [9]; 84% in [10]; 90% in [11]; 91% in [12]; 39% in assay [13]. Moreover, the remaining activity at 1 µM in assay [14] is 29%; in [15] it was 73%; in assay [16], 69%. In addition, the “%Remaining activity at 1µM NU6300” value in assay [6] was 69%.
